Test results from US9701669B2, “Preparation and use of 7a-amide substituted- 6,6-difluoro bicyclic himbacine derivatives as PAR-1 receptor antagonists” (Merck Sharp & Dohme Corp., priority 2013, dated 2017).
Like-named read-outs stand apart in the source and are kept apart here.

Experiments:
PAR-1 receptor = PAR-1 receptor (Homo sapiens (Human), UniProt P25116); assay: PAR-1 FLIPR Assay; format: cell-based; conditions: for IC50: HEK 293 cells, calcium signal after PAR-1 selective receptor-activating peptide at 80% activation
PAR-1 receptor, sequence (P25116 22-425): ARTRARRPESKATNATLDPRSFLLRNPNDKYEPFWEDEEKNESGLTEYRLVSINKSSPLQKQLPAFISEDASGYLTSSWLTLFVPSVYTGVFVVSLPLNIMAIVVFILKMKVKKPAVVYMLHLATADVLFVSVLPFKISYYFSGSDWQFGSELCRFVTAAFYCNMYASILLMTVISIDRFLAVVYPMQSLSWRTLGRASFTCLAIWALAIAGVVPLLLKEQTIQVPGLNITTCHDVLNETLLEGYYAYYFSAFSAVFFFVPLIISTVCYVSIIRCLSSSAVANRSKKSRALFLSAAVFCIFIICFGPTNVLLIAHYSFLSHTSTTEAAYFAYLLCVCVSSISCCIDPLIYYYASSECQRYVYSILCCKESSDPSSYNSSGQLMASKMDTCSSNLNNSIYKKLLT
Method: This assay measures the potency of the inventive compounds as PAR-1 receptor antagonists.
Frozen HEK 293 Cells were plated in 384-well PDL coated plates at 12000 cells/well in 50 uL of DMEM media containing 10% FBS, pen/strep/L-Glutamine and non-essential amino acids, incubated overnight at 37° C./5% CO2. Media was then removed from the cells, incubated with 33 ul of Calcium-5 dye in assay buffer (Hank's buffer containing 20 mM HEPES, 0.04% Chaps and 2.5 mM Probenecid) for 60 minutes at 37° C. 2 uL of varying concentrations of compound in 40% DMSO in assay buffer (final DMSO concentration is 2.3%) were then added to the cells and incubated at 25° C. for 30 minutes. […] The range of peptide was from 1.5-3 μM. The final volume was 40 uL/well, with 2% DMSO. […] The data were analyzed by taking the peak signal over a portion of the range of the 60 scans and dividing this signal by the minimum signal for that same range.

[1] = biological target: human Ether-á-go-go Related Gene (hERG) ion channel (Homo sapiens (Human), UniProt Q12809); assay: MK-499 Filter Binding Assay
human Ether-á-go-go Related Gene (hERG) ion channel, sequence (Q12809 whole entry): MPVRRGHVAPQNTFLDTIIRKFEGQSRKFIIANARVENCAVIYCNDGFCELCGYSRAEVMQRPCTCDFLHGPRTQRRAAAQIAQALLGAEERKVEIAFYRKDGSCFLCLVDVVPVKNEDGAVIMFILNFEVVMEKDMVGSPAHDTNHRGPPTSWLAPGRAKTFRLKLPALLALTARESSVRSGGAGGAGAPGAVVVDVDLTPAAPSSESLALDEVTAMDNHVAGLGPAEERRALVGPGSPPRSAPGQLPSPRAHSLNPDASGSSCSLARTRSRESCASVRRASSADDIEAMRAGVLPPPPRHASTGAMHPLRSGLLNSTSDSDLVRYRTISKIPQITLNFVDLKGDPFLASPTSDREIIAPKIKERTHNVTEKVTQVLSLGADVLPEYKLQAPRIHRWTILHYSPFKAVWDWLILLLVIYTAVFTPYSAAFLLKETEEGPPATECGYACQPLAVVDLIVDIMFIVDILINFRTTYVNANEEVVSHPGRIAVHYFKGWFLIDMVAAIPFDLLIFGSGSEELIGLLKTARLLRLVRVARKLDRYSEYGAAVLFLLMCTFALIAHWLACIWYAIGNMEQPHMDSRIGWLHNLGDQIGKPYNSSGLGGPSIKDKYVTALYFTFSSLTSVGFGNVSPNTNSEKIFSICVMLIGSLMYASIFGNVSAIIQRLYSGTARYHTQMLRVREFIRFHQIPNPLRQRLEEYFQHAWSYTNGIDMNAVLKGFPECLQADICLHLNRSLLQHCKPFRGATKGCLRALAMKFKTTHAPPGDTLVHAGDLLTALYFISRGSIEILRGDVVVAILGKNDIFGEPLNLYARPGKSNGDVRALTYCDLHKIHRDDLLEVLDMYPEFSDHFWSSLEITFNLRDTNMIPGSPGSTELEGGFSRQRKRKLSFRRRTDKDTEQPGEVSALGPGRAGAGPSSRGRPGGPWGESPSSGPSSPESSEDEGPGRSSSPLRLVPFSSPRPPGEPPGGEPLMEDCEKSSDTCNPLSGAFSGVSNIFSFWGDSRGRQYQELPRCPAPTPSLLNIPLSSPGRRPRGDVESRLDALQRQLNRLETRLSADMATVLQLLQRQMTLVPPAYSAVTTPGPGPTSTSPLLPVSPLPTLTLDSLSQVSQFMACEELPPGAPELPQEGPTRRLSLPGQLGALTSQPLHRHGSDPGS
Method: This assay is used to evaluate the potential of a compound to cause drug-induced long QT syndrome.
Drug cardiac arrhythmia is an important safety concern for pharmaceutical development and health regulatory authorities.
Then, 30 μL wash buffer (10 mM HEPES/NaOH, pH 7.4, 130 mM NaCl, 2 mM MgCl2, 1 mM CaCl2) equilibrated to RT were added to each well of the assay plate and subsequently transferred to the filter plate. The assay mixture was aspirated through the filter plate using a Biotek ELx405™ washer. The filter plate was washed twice with 100 μl cold wash buffer per wash and well and then dried in a drying oven for at least 75 min at 55° C. Afterwards, the bottom of each filter plate was heat sealed with a solid foil seal, then 10 μL of Microscint™ 0 (Perkin Elmer) were added to each well of the filter plate and finally, the top of each filter plate was sealed with a clear seal. The plates were stored for at least 20 min in a MicroBeta2 reader (Perkin Elmer) before they are counted (60 sec/well).

[2] = membranes from HEK293 cell line expressing hERG, [35S]MK-0499 radioligand, read-out: MK499 IC50

Row | SMILES | IC50 (PAR-1 receptor) [nM] | IC50 [1, 2] [nM] | IC50 ([1]; human, pH 7.4) [nM] | PAR-1 FLIPR IC50 (PAR-1 receptor; unit printed as 'mn' (apparent misprint of nM), same assay as E1, unit of the source corrected) [nM]
1 | Cc1cccc(-c2ccc(/C=C/[C@@H]3[C@@H]4[C@@H](C)OC(=O)[C@]4(C(N)=O)CC(F)(F)[C@H]3C)nc2)c1F [Example 2, (1R,3aR,6S,7R, 7aS)-5,5-difluoro-7-((E)-2-(5-(2-fluoro-3-methylphenyl)pyridin-2-yl)vinyl)-1,6-dimethyl-3-oxooctahydro-isobenzofuran-3a-carboxamide] | 3.8 | 13000 | – | –
2 | C[C@H]1OC(=O)[C@]2(C(O)C(N)=O)CC(F)(F)[C@@H](C)[C@H](/C=C/c3ccc(-c4ccccc4C#N)cn3)[C@H]12 (mixture of isomers) [Example 20, (S and R)-2-((1R,3aR,6S, 7R,7aS)-7-((E)-2-(5-(2-cyanophenyl)pyridin-2-yl)vinyl)-5,5-difluoro-1,6-dimethyl-3-oxooctahydro-isobenzofuran-3a-yl)-2-hydroxyacetamide] | 4.41 | – | – | –
3 | C[C@H]1OC(=O)[C@]2(CCC(N)=O)CC(F)(F)[C@@H](C)[C@H](/C=C/c3ccc(-c4ccccc4C#N)cn3)[C@H]12 [Example 14, 3-((1R,3aR,6S,7R,7aS)-7-((E)-2-(5-(2-cyanophenyl)pyridin-2-yl)vinyl)-5,5-difluoro-1,6-dimethyl-3-oxooctahydroisobenzofuran-3a-yl)propanamide] | 4.4 | – | – | –
4 | Cc1nc(/C=C/[C@@H]2[C@@H]3[C@@H](C)OC(=O)[C@]3(C(N)=O)CC(F)(F)[C@H]2C)ccc1-c1ccccc1C#N [Example 4, (1R,3aR,6S,7R, 7aS)-7-((E)-2-(5-(2-cyanophenyl)-6-methylpyridin-2-yl)vinyl)-5,5-difluoro-1,6-dimethyl-3-oxooctahydro-isobenzofuran-3a-carboxamide] | – | – | 60000 | –
5 | C[C@H]1OC(=O)[C@]2(C(N)=O)CC(F)(F)[C@@H](C)[C@H](/C=C/c3ccc(-c4ccccc4C#N)cn3)[C@H]12 [Example 1, (1R,3aR,6S,7R,7aS)-7-((E)-2-(5-(2-cyanophenyl)pyridin-2-yl)vinyl)-5,5-difluoro-1,6-dimethyl-3-oxooctahydroisobenzofuran-3a-carboxamide] | 2.93 | – | – | –
6 | C[C@H]1OC(=O)[C@]2(N3CC(C(N)=O)C3)CC(F)(F)[C@@H](C)[C@H](/C=C/c3ccc(-c4cccc(F)c4)cn3)[C@H]12 [Example 13, 1-((1R,3aS,6S, 7R,7aS)-5,5-difluoro-7-((E)-2-(5-(3-fluorophenyl)pyridin-2-yl)vinyl)-1,6-dimethyl-3-oxo-octahydro-isobenzofuran-3a-yl)azetidine-3-carboxamide] | 13.9 | – | – | –
7 | Cc1c(F)cccc1-c1ccc(/C=C/[C@@H]2[C@@H]3[C@@H](C)OC(=O)[C@]3(C(N)=O)CC(F)(F)[C@H]2C)nc1 [Example 3, (1R,3aR, 6S,7R,7aS)-5,5-difluoro-7-((E)-2-(5-(3-fluoro-2-methylphenyl)pyridin-2-yl)vinyl)-1,6-dimethyl-3-oxooctahydro-isobenzofuran-3a-carboxamide] | 1.37 | 12000 | – | –
8 | C[C@H]1OC(=O)[C@]2(N3CC(C(N)=O)C3)CC(F)(F)[C@@H](C)[C@H](/C=C/c3ccc(-c4ccccc4C#N)cn3)[C@H]12 [Example 12, 1-((1R,3aS,6S,7R,7aS)-7-((E)-2-(5-(2-cyanophenyl)pyridin-2-yl)vinyl)-5,5-difluoro-1,6-dimethyl-3-oxo-octahydroisobenzofuran-3a-yl)azetidine-3-carboxamide] | 5.7 | 16300 | – | –
9 | C[C@H]1OC(=O)[C@]2(CCC(N)=O)CC(F)(F)[C@@H](C)[C@H](/C=C/c3ccc(-c4cccnc4C#N)cn3)[C@H]12 [Example 15, 3-((1R,3aR,6S, 7R,7aS)-7-((E)-2-(2′-cyano-[3,3′-bipyridin]-6-yl)vinyl)-5,5-difluoro-1,6-dimethyl-3-oxooctahydro-isobenzofuran-3a-yl)propanamide] | 6.34 | – | 60000 | –
10 | C[C@H]1OC(=O)[C@]2(C(N)=O)CC(F)(F)[C@@H](C)[C@H](/C=C/c3ccc(-c4cccc5c4OC(F)(F)O5)cn3)[C@H]12 [Example 10, (1R,3aR,6S,7R,7aS)-7-((E)-2-(5-(2,2-difluorobenzo[d][1,3]dioxol-4-yl)pyridin-2-yl)vinyl)-5,5-difluoro-1,6-dimethyl-3-oxooctahydroisobenzofuran-3a-carboxamide] | 4.49 | 15400 | – | –
11 | C[C@H]1OC(=O)[C@]2(NCC(N)=O)CC(F)(F)[C@@H](C)[C@H](/C=C/c3ccc(-c4ccccc4C#N)cn3)[C@H]12 [Example 18, 2-(((1R,3aS,6S,7R,7aS)-7-((E)-2-(5-(2-cyanophenyl)pyridin-2-yl)vinyl)-5,5-difluoro-1,6-dimethyl-3-oxooctahydroisobenzofuran-3a-yl)amino)acetamide] | 4.3 | – | – | –
12 | COC(C(N)=O)[C@@]12CC(F)(F)[C@@H](C)[C@H](/C=C/c3ccc(-c4ccccc4C#N)cn3)[C@@H]1[C@@H](C)OC2=O (mixture of isomers) [Example 19, (S and R)-2-((1R,3aR,6S,7R,7aS)-7-((E)-2-(5-(2-cyanophenyl)pyridin-2-yl)vinyl)-5,5-difluoro-1,6-dimethyl-3-oxooctahydroisobenzofuran-3a-yl)-2-methoxyacetamide] | – | 47700 | – | 3.02
13 | C[C@H]1OC(=O)[C@]2(C(C)(C)C(N)=O)CC(F)(F)[C@@H](C)[C@H](/C=C/c3ccc(-c4ccccc4C#N)cn3)[C@H]12 [Example 21, 2-((1R,3aR,6S,7R,7aS)-7-((E)-2-(5-(2-cyanophenyl)pyridin-2-yl)vinyl)-5,5-difluoro-1,6-dimethyl-3-oxooctahydroisobenzofuran-3a-yl)-2-methylpropanamide] | 17.1 | – | – | –
14 | C[C@H]1OC(=O)[C@]2(CC(N)=O)CC(F)(F)[C@@H](C)[C@H](/C=C/c3ccc(-c4ccccc4C#N)cn3)[C@H]12 [Example 5, 2-((1R,3aR,6S,7R,7aS)-7-((E)-2-(5-(2-cyanophenyl)pyridin-2-yl)vinyl)-5,5-difluoro-1,6-dimethyl-3-oxooctahydroisobenzofuran-3a-yl)acetamide] | 3.14 | – | – | –
15 | C[C@H]1OC(=O)[C@]2(C(N)=O)CC(F)(F)[C@@H](C)[C@H](/C=C/c3ccc(-c4cccnc4C#N)cn3)[C@H]12 [Example 11] | 9.68 | 60000 | – | –
16 | C[C@H]1OC(=O)[C@]2(CC(N)=O)CC(F)(F)[C@@H](C)[C@H](/C=C/c3ccc(-c4cccnc4C#N)cn3)[C@H]12 [Example 17, 2-((1R,3aR,6S, 7R,7aS)-7-((E)-2-(2′-cyano-[3,3′-bipyridin]-6-yl)vinyl)-5,5-difluoro-1,6-dimethyl-3-oxooctahydro-isobenzofuran-3a-yl)acetamide] | 21.2 | – | – | –
17 | COc1ncccc1-c1ccc(/C=C/[C@@H]2[C@@H]3[C@@H](C)OC(=O)[C@]3(CC(N)=O)CC(F)(F)[C@H]2C)nc1 [Example 16, 2-((1R,3aR,6S, 7R,7aS)-5,5-difluoro-7-((E)-2-(2′-methoxy-[3,3′-bipyridin]-6-yl)vinyl)-1,6-dimethyl-3-oxooctahydro-isobenzofuran-3a-yl)acetamide] | 104 | 25900 | – | –
